ChEMBL document CHEMBL1137315, “7-Aroyl-aminoindoline-1-sulfonamides as a novel class of potent antitubulin agents” (J Med Chem, 2006)

What was measured:
KB [1] = assay: Cytotoxicity against human KB cell line by methylene blue dye assay; type: functional, cell-based
MKN-45 = assay: Cytotoxicity against human MKN45 cell line by methylene blue dye assay; type: functional, cell-based
KB [2] = assay: Cytotoxicity against KB-VIN 10 cell line by methylene blue dye assay; type: functional, cell-based; settings: Homo sapiens
Tubulin (Homo sapiens) [3] = molecular target: T1, Tubulin (Homo sapiens) (UniProt P68371+Q9H4B7+P0DPH7+P68366+Q13509+Q71U36+P04350+Q3ZCM7+P07437+P68363+Q9BQE3+Q6PEY2+Q13885+Q9BVA1+Q9BUF5); assay: Inhibition of [3H]colchicine binding to tubulin at 5 uM; type: protein-complex assay
NCI-H460 = assay: Cytotoxicity against human H460 cell line by methylene blue dye assay; type: functional, cell-based
TSGH 9201 = assay: Cytotoxicity against human TSGH cell line by methylene blue dye assay; type: functional, cell-based
HT-29 = assay: Cytotoxicity against human HT29 cell line by methylene blue dye assay; type: functional, cell-based
Tubulin = assay: Inhibition of tubulin polymerization; type: functional, Homo sapiens
Tubulin (Homo sapiens) [4] = molecular target: T1, Tubulin (Homo sapiens); assay: Inhibition of [3H]colchicine binding to tubulin at 1 uM; type: protein-complex assay

SMILES | IC50 (KB [1]) | IC50 (MKN-45) | IC50 (KB [2]) | inhibition (Tubulin (Homo sapiens) [3]) | IC50 (NCI-H460) | IC50 (TSGH 9201) | IC50 (HT-29) | IC50 (Tubulin) | inhibition (Tubulin (Homo sapiens) [4])
COc1ccc(S(=O)(=O)N2CCc3cccc(N)c32)cc1 | 2800 nM | 1200 nM |  |  |  |  |  |  | 
COc1ccc(S(=O)(=O)N2CCc3cccc(NC(C)=O)c32)cc1 | 89 nM | 61 nM | 90 nM | 86% | 75 nM | 103 nM | 51 nM | 1900 nM | 57%
COc1ccc(S(=O)(=O)N2CCc3cc(Br)cc(NC(=O)c4ccncc4)c32)cc1 | 91 nM | 86 nM |  |  |  |  |  |  | 
COc1ccc(S(=O)(=O)N2CCc3cc(Br)cc(NC(=O)c4ccco4)c32)cc1 | 89 nM | 78 nM |  |  |  |  |  |  | 
COc1ccc(S(=O)(=O)N2CCc3cccc(NCc4ccccc4)c32)cc1 | > 10000 nM | > 10000 nM | > 10000 nM |  | > 10000 nM | > 10000 nM | > 10000 nM | > 5000 nM | 
COc1ccc(S(=O)(=O)N2CCc3cccc(NS(=O)(=O)c4ccc([N+](=O)[O-])cc4)c32)cc1 | 1100 nM | 933 nM |  |  |  |  |  |  | 
COc1ccc(S(=O)(=O)N2CCc3cccc(NC(=O)Oc4ccccc4)c32)cc1 | > 10000 nM | > 10000 nM |  |  |  |  |  |  | 
COc1ccc(S(=O)(=O)N2CCc3cccc(NC(=O)c4ccc([N+](=O)[O-])cc4)c32)cc1 | 102 nM | 95 nM | 95 nM | 91% | 122 nM | 116 nM | 65 nM | 1900 nM | 62%
COc1ccc(S(=O)(=O)N2CCc3cccc(NC(=O)N(C)c4ccccc4)c32)cc1 | > 10000 nM | > 10000 nM |  |  |  |  |  |  | 
COc1ccc(S(=O)(=O)N2CCc3cccc(NC(=O)c4ccco4)c32)cc1 | 9.6 nM | 10.7 nM | 9.2 nM | 95% | 9.8 nM | 11.1 nM | 9.5 nM | 1200 nM | 74%
COc1ccc(S(=O)(=O)N2CCc3cccc(NC(=O)c4ccncc4)c32)cc1 | 9.6 nM | 8.8 nM | 8.9 nM | 96% | 9.4 nM | 10.8 nM | 8.6 nM | 1100 nM | 78%
COc1cc2c(c(OC)c1OC)-c1ccc(OC)c(=O)cc1[C@@H](NC(C)=O)CC2 [COLCHICINE] | 13.3 nM | 15 nM | 117 nM |  |  |  |  |  | 
COc1ccc(S(=O)(=O)N2CCc3cccc(NC(=O)C(C)(C)C)c32)cc1 | 359 nM | 289 nM |  |  |  |  |  |  | 
COc1ccc(C(=O)Nc2cccc3c2N(S(=O)(=O)c2ccc(OC)cc2)CC3)cc1 | 2600 nM | 1600 nM |  |  |  |  |  |  | 
COc1ccc(S(=O)(=O)N2CCc3cccc(NC(=O)c4cccs4)c32)cc1 | 47 nM | 31 nM | 43 nM | 94% | 49 nM | 54 nM | 37 nM | 1700 nM | 75%
COc1ccc(S(=O)(=O)N2CCc3cccc(NC(=O)c4ccccc4)c32)cc1 | 297 nM | 250 nM | 180 nM |  | 257 nM | 201 nM | 192 nM |  | 
COc1ccc(S(=O)(=O)N2CCc3cccc(NC(=O)c4ccc(C#N)cc4)c32)cc1 | 105 nM | 89 nM |  |  |  |  |  |  | 
COc1ccc(S(=O)(=O)N2CCc3cccc(NS(=O)(=O)c4ccc(F)cc4)c32)cc1 | 1200 nM | 890 nM |  |  |  |  |  |  | 
COc1ccc(S(=O)(=O)N2CCc3cccc(NS(=O)(=O)c4ccccc4)c32)cc1 | 650 nM | 562 nM |  |  |  |  |  |  | 
COc1ccc(S(=O)(=O)N2CCc3cccc(NC(=O)c4ccc(F)cc4)c32)cc1 | 93 nM | 45 nM | 85 nM | 93% | 95 nM | 100 nM | 55 nM | 1500 nM | 65%
COC(=O)c1ccc(C(=O)Nc2cccc3c2N(S(=O)(=O)c2ccc(OC)cc2)CC3)cc1 | 376 nM | 312 nM |  |  |  |  |  |  | 
